In patent US20230321125A1, “COMPOSITIONS OF GINSENOSIDE RG3 AND GINSENOSIDE RG5 AND THEIR PHARMACEUTICAL USES INCLUDING ANTI-TUMOR EFFECTS” (DALIAN FUSHENG NATURAL MEDICINE DEVELOPMENT CO., LTD., priority 2020, published 2023):

System: QBC939/ADM
Assay: CCK-8 assay of cytotoxicity of targeted drugs with or without ginsenoside composition in drug-resistant cells
Type: cell-based, Human
Conditions: 24 h
Protocol: 1. Materials and Methods Human cholangiocarcinoma cell line QBC939, purchased from Shanghai Honshun Biological Technology Co., Ltd.
The human cholangiocarcinoma cell line QBC939 was thawed and inoculated into T25 cell culture flasks filled with cell culture medium, and QBC939/ADM was constructed by continuously increasing the contact concentration of ADM.
The cells were divided into a blank zeroed control group, a normal control group and 9 experimental groups, each containing 100 μL of 80 μg/mL ginsenoside composition for cell culturing.
The control group (chemotherapeutic drug group): 100 μL of culture medium containing chemotherapeutic drugs was added to each well. The chemotherapeutic drugs included the targeted drugs afatinib (400 μg/mL), ceritinib (1000 μg/mL) and erlotinib (200 μg/mL). Six replicate wells were set up for each drug.
The experimental group (chemotherapeutic drugs+traditional Chinese medicine): 100 μL of culture medium containing chemotherapeutic drugs+ginsenoside composition was added to each well, namely afatinib (400 μg/mL)+ginsenoside composition (80 μg/mL), ceritinib (1000 μg/mL)+ginsenoside composition (80 μg/mL), and erlotinib (200 μg/mL)+ginsenoside composition (80 μg/mL). Six replicate wells were set up for each drug.
The cytotoxic effects of the chemotherapeutic drugs were detected 24 h later.

## CN(C)C/C=C/C(=O)Nc1cc2c(Nc3ccc(F)c(Cl)c3)ncnc2cc1O[C@H]1CCOC1 [afatinib]
Control group: afatinib 400 μg/mL alone
  Absorbance value (OD, CCK-8), Afatinib: 1.179 ± 0.147

## Cc1cc(Nc2ncc(Cl)c(Nc3ccccc3S(=O)(=O)C(C)C)n2)c(OC(C)C)cc1C1CCNCC1 [ceritinib]
Control group: ceritinib 1000 μg/mL alone
  Absorbance value (OD, CCK-8), Ceritinib: 1.304 ± 0.096

## C#Cc1cccc(Nc2ncnc3cc(OCCOC)c(OCCOC)cc23)c1 [erlotinib]
Control group: erlotinib 200 μg/mL alone
  Absorbance value (OD, CCK-8), Erlotinib: 1.294 ± 0.131
